The test system of one test is SETFA. As to the kind of experiment: greenhouse experiment, pre-emergence treatment. The note with it: pre-emergence method, application rate 1000 g/ha, scale from 0 to 100. It is filed as in vivo, Setaria faberi Herrm. The text has this: (§1) The culture containers used were plastic flowerpots containing loamy sand with approximately 3.0% of humus as the substrate. The seeds of the test plants were sown separately for each species.
(§2) For the pre-emergence treatment, the active ingredients, which had been suspended or emulsified in water, were applied directly after sowing by means of finely distributing nozzles.
(§3) The containers were irrigated gently to promote germination and growth and subsequently covered with transparent plastic hoods until the plants had rooted. This cover caused uniform germination of the test plants, unless this had been impaired by the active ingredients.
(§4) Depending on the species, the plants were kept at 10-25° C. or 20-35° C., respectively.
(§5) The test period extended over 2 to 4 weeks. During this time, the plants were tended, and their response to the individual treatments was evaluated.
(§6) Evaluation was carried out using a scale from 0 to 100. 100 means no emergence of the plants, or complete destruction of at least the aerial moieties, and 0 means no damage, or normal course of growth. A good herbicidal activity is given at values of at least 70 and a very good herbicidal activity is given at values of at least 85.
(§7) The plants used in the greenhouse experiments were of the following species: […]

For another test, the system named is ALOMY. The test can be described thus: greenhouse experiment, post-emergence treatment. It is filed as in vivo, Alopecurus myosuroides. The following applies: post-emergence method, application rate 1000 g/ha, scale from 0 to 100.
Description: as §1
(§8) For the post-emergence treatment, the test plants were first grown to a height of 3 to 15 cm, depending on the plant habit, and only then treated with the active ingredients which had been suspended or emulsified in water. For this purpose, the test plants were either sown directly and grown in the same containers, or they were first grown separately as seedlings and transplanted into the test containers a few days prior to treatment.
as §4, §5, §6, §7

The test system of the next test is AVEFA. As to the kind of experiment: greenhouse experiment, post-emergence treatment. In kind it is in vivo, Avena fatua. The following applies: post-emergence method, application rate 1000 g/ha, scale from 0 to 100.
Description: as §1, §8, §4, §5, §6, §7

The next test deals with ECHCG. As to the kind of experiment: greenhouse experiment, pre-emergence treatment. In kind it is in vivo, Echinocloa crus-galli. The note with it: pre-emergence method, application rate 1000 g/ha, scale from 0 to 100.
Description: as §1, §2, §3, §4, §5, §6, §7

The test system of the next test is APESV. The test can be described thus: greenhouse experiment, pre-emergence treatment. In kind it is in vivo, Apera spica-venti. The following applies: pre-emergence method, application rate 1000 g/ha, scale from 0 to 100.
Description: as §1, §2, §3, §4, §5, §6, §7

The subject of test [1] is AMARE. As to the kind of experiment: greenhouse experiment, post-emergence treatment. In kind it is in vivo, Amaranthus retroflexus. The note with it: post-emergence method, application rate 1000 g/ha, scale from 0 to 100.
Description: as §1, §8, §4, §5, §6, §7

In test [2] the test system is AMARE. The test can be described thus: greenhouse experiment, pre-emergence treatment. The note with it: pre-emergence method, application rate 1000 g/ha, scale from 0 to 100. It is filed as in vivo, Amaranthus retroflexus.
Description: as §1, §2, §3, §4, §5, §6, §7

For `COC(=O)c1nc(C2CC2)ncc1-c1ccc2ccccc2c1Cl` [example 26], in the test on SETFA, the “herbicidal activity against SETFA” value is listed as “very good (a very good herbicidal activity is given at values of at least 85)”.

Turning to `O=C(O)c1nc(C2CC2)ncc1-c1c(Cl)ccc2c1OCO2` [example 14], the “herbicidal activity against ALOMY” value in the test on ALOMY is recorded as “good (A good herbicidal activity is given at values of at least 70)”. The “herbicidal activity against AVEFA” value in the test with AVEFA was “good (A good herbicidal activity is given at values of at least 70)”. The “herbicidal activity against ECHCG” value with ECHCG is reported as “very good (a very good herbicidal activity is given at values of at least 85)”. The “herbicidal activity against APESV” value with APESV is on record as “very good (a very good herbicidal activity is given at values of at least 85)”.

Turning to `O=C(O)c1nc(C2CC2)ncc1-c1cccc2c1OCO2` [example 6], the “herbicidal activity against ALOMY” value in the test on ALOMY is listed as “very good (a very good herbicidal activity is given at values of at least 85)”. The “herbicidal activity against AMARE” value with AMARE [1] and in the test with AMARE [2] was “very good (a very good herbicidal activity is given at values of at least 85)” in each case. For the same molecule, the “herbicidal activity against ECHCG” value in the test on ECHCG is listed as “very good (a very good herbicidal activity is given at values of at least 85)”. The “herbicidal activity against APESV” value in the test on APESV is given as “very good (a very good herbicidal activity is given at values of at least 85)”.

For the origin of these results see patent US20190161451A1, “HERBICIDAL PYRIMIDINE COMPOUNDS” (BASF SE, priority 2016, published 2019).
